Values of other authors, collected in PMC11999338, “Factor XI localization in human deep venous thrombus and function of activated factor XI on venous thrombus formation and hemostasis” (Research and Practice in Thrombosis and Haemostasis, 2025).
Read-outs that look alike come from different tables or passages of the source.

Columns and labels:
[1] = set-up: method as in PMID 33450079; conditions: phase I, approximately 14 days in the fed state in healthy individuals; cited from earlier work
[2] = test system: inferior vena cava thrombus; set-up: method as in PMID 21614454; conditions: rabbits, i.v. administration; cited from earlier work
[3] = patients with atrial fibrillation; asundexian 50 mg, once daily; cited from earlier work
VTE = conditions: cited from earlier work
venous thrombus = test system: venous thrombus; set-up: method as in PMID 23925504; conditions: mice, cited from earlier work
[4] = patients after knee arthroplasty, phase II

Nc1ccc(-c2nc([C@H]3CCc4cc(-c5cc(Cl)ccc5-n5cnnn5)cc(=O)n43)c(F)[nH]2)c(F)n1 (stereo in doubt) [ONO-7684]
safety and tolerability [1]: showed safety and tolerability

CC(C)(C)NC(=O)N1CCN(C(=O)N2C(=O)[C@H](CCCN=C(N)N)[C@H]2C(=O)O)CC1 [BMS-262084]
silk thread-induced thrombus in the inferior vena cava [2]: reduced

COc1ccc(-n2nc(C(N)=O)c3c2C(=O)N(c2ccc(N4CCCCC4=O)cc2)CC3)cc1 [apixaban]
bleeding rate [3]: 2.4%
major or clinically relevant nonmajor bleeding rate (VTE; [4]): ~2%

enoxaparin
venous thrombus formation (venous thrombus; ferric chloride-induced): strongly inhibited
bleeding time (venous thrombus; tail cut): prolonged
major or clinically relevant nonmajor bleeding rate (VTE; [4]): ~5.9%

osocimab: human monoclonal anti-FXI antibody
major or clinically relevant nonmajor bleeding rate (VTE; human, in vivo): approximately 4.7%
incidence of VTE at 10 to 13 days (VTE; single infusion, compared with enoxaparin, patients after knee arthroplasty): noninferiority
